Results from US10106542B2, “Substituted 6,7-dihydropyrazolo[1,5-a]pyrazines as negative allosteric modulators of mGluR2 receptors” (Janssen Pharmaceutica NV, priority 2013, dated 2018).
Where two headings read alike, the source gives them in different places.

How the values were obtained:
rats [1] = assay: Reversal of the effect of the mGluR2 PAM JNJ-42153605 on scopolamine-induced hyperlocomotion; type: in vivo; details: Rattus norvegicus, 1 h, test compound 60 min before recording, criterion total distance >1500 cm
Method in brief: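 Rats pretreated with test compound or vehicle 60 min before recording, given JNJ-42153605 (20 mg/kg, i.v.) at 30 min prior, then scopolamine (0.16 mg/kg, i.v.) immediately before. Total distance travelled over the first 30 min was video-tracked. All-or-none scoring: reversal >1500 cm, normalization >4400 cm.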

Male Long Evans rats = assay: V-maze test (PCP-disrupted visual-spatial working memory); type: in vivo, rat; details: p.o. 4 h before test
From the text: The V-maze-test is a two-trial short term visual-spatial working memory task based on spontaneous exploration of a new and a familiar arm in a 2-arm maze (Embrechts et al. (2013) “Longitudinal characterization of the TauPS2APP mouse model of Alzheimer's disease in a two trial discrimination task of visuo-spatial recognition memory”, 45th European Brain and Behaviour Society Meeting 6-9 Sep. 2013, Munich, Abstract P202).
Male Long Evans rats (Janvier, France, body weight 280 to 295 g) were group housed in enriched individually ventilated cages and habituated to environmental conditions for 5 days. After acclimatization, animals were single housed for 4 days until testing. During this period animals were handled for 2 min per day and received sham dosing once a day for 3 days prior to the test. The V-maze consisted of two arms (L×W×H: 70×10×30 cm) at a 90° angle to each other to form a V-shaped maze connected by guillotine doors to a center zone. […] The animal's exploration of each arm was automatically quantified using Ethovision XT 7.0 (Noldus, The Netherlands). […] The time spent in the familiar and new arm respectively during the choice session was recorded for 5 min.
Co. No. 1 was evaluated in rats in a series of dose-response studies evaluating doses from 0.16 to 10 mg/kg. […]

rats [2] = assay: Ro-4-1284 interaction test in rats; type: in vivo, rat; details: Rattus norvegicus; p.o.; Ro-4-1284 1.25 mg/kg s.c.; cumulative score over 1 h; read-out: ED50 increase of palpebral opening to scores >25 (reversal of Ro-4-1284-induced palpebral ptose)
Experimental: (§1) 5) Ro-4-1284 Interaction Test in Rats The relative ability of Co. No. 1 to increase palpebral opening was also studied in rats challenged with another monoamines depleting agent, viz. Ro-4-1284 (1.25 mg/kg, s.c.). Effects on body temperature immediately before the injection of Ro-4-1284 were also measured. The cumulative palpebral opening score (every 5 min over a 1-h period) was used for evaluation. The median cumulative palpebral opening in solvent-pretreated control animals (n=70) was 18; a scores >25 occurred in only 1.4% of these control animals and was adopted as all-or-none criterion for drug-induced reversal of the Ro-4-1284-induced palpebral ptose. Co.

[3] = Ro-4-1284 interaction test in rats; type: in vivo, rat; details: rat, in vivo, po; read-out: ED50 effect on body temperature immediately before the injection of Ro-4-1284
Experimental: as §1

Wiga rats = assay: Reserpine interaction test in rats; type: in vivo, rat; details: Rattus norvegicus, Wiga rats
Experimental: 4) Reserpine Interaction Test in Rats
It was investigated to what extent the mydriatic action of test compounds was sufficient to counteract the miosis induced by the monoamines-depleting agent reserpine (10 mg/kg; SC) in Wiga rats.
The effects are illustrated in FIG. 3. […] The reference mGlu2 NAMs RO-4995819 (40 mg/kg, p.o.), RO-4491533 (40 mg/kg, p.o.; 10 mg/kg, s.c.) and [CAS 579473-69-1]

SMILES: Cc1cc(-c2cnn3c2C(=O)N(c2ccc(C(F)(F)F)cc2)C[C@@H]3C)ccn1 [compound 1, (7S)-7-Methyl-3-(2-methylpyridin-4-yl)-5-[4-(trifluoromethyl)phenyl]-6,7-dihydropyrazolo[1,5-a]pyrazin-4(5H)-one]
- ED50 (rats [1]; Route PO): 0.45 mg/kg
- ED50 (rats [1]; Route SC): 3.54 mg/kg
- reversal effect against PCP observed up to the highest dose tested (Male Long Evans rats; PCP 0.75 mg/kg s.c.): ≤ 10 mg/kg
- doses at which PCP-challenged rats showed again a clear preference for the new arm (Male Long Evans rats; PCP 0.75 mg/kg s.c. 30 min prior, doses 0.16 to 10 mg/kg evaluated): ≥ 0.32 mg/kg
- ED50 (rats [2]): 0.51 mg/kg
- ED50 [3]: > 10 mg/kg
- ED50 (Wiga rats; p.o., -1 h, reserpine 10 mg/kg SC, read-out: ED50 reversal of reserpine-induced miosis): 9.4 mg/kg
- ED50 (Wiga rats; p.o., -1 h, reserpine 10 mg/kg SC, read-out: ED50 reversal of reserpine-induced ptosis): 0.78 mg/kg
- ED50 (Wiga rats; p.o., -1 h, reserpine 10 mg/kg SC, read-out: ED50 reversal of reserpine-induced sedation): 7.1 mg/kg
- ED50 (Wiga rats; p.o., -4 h, reserpine 10 mg/kg SC, read-out: ED50 reversal of reserpine-induced miosis): 9.4 mg/kg
- ED50 (Wiga rats; p.o., -4 h, reserpine 10 mg/kg SC, read-out: ED50 reversal of reserpine-induced ptosis): 0.78 mg/kg
- ED50 (Wiga rats; p.o., -4 h, reserpine 10 mg/kg SC, read-out: ED50 reversal of reserpine-induced sedation): 14 mg/kg
- ED50 (Wiga rats; po, -1 h, read-out: ED50 mydriasis before the reserpine challenge): 1.55 mg/kg
- ED50 (Wiga rats; po, -4 h, read-out: ED50 mydriasis before the reserpine challenge): 0.89 mg/kg
- ED50 (Wiga rats; po, Time 60, reserpine 10 mg/kg SC, read-out: ED50, reversal of reserpine-induced ptosis): 0.67 mg/kg
- ED50 (Wiga rats; po, Time 240, reserpine 10 mg/kg SC, read-out: ED50, reversal of reserpine-induced ptosis): 0.89 mg/kg
- ED50 (Wiga rats; sc, Time 60, reserpine 10 mg/kg SC, read-out: ED50, reversal of reserpine-induced ptosis): 1.01 mg/kg
- ED50 (Wiga rats; sc, read-out: ED50 mydriasis before the reserpine challenge): 1.78 mg/kg
- ED50 (Wiga rats; sc, reserpine 10 mg/kg SC, read-out: ED50 reversal of reserpine-induced miosis): 4.1 mg/kg
- ED50 (Wiga rats; sc, reserpine 10 mg/kg SC, read-out: ED50 reversal of reserpine-induced ptosis): 1.03 mg/kg
- ED50 (Wiga rats; sc, reserpine 10 mg/kg SC, read-out: ED50 reversal of reserpine-induced sedation): 9.4 mg/kg
